Experimental data taken from patent US20130245084A1, “CALCIUM-SENSING RECEPTOR-ACTIVE COMPOUNDS” (LEO PHARMA A/S, priority 2010, published 2013).

These compounds were tested against T1, human CaSR (Homo sapiens, UniProt P41180) (assay: Functional whole cell assay (modulation of human CaSR), IP1 accumulation in CHO-K1 cells). Conditions: CHO-K1 cells stably expressing human CaSR, final Ca2+ 1.9 mM, IP1 HTRF; concentration giving 50% of maximum agonistic response.
T1 sequence (P41180 20-1078): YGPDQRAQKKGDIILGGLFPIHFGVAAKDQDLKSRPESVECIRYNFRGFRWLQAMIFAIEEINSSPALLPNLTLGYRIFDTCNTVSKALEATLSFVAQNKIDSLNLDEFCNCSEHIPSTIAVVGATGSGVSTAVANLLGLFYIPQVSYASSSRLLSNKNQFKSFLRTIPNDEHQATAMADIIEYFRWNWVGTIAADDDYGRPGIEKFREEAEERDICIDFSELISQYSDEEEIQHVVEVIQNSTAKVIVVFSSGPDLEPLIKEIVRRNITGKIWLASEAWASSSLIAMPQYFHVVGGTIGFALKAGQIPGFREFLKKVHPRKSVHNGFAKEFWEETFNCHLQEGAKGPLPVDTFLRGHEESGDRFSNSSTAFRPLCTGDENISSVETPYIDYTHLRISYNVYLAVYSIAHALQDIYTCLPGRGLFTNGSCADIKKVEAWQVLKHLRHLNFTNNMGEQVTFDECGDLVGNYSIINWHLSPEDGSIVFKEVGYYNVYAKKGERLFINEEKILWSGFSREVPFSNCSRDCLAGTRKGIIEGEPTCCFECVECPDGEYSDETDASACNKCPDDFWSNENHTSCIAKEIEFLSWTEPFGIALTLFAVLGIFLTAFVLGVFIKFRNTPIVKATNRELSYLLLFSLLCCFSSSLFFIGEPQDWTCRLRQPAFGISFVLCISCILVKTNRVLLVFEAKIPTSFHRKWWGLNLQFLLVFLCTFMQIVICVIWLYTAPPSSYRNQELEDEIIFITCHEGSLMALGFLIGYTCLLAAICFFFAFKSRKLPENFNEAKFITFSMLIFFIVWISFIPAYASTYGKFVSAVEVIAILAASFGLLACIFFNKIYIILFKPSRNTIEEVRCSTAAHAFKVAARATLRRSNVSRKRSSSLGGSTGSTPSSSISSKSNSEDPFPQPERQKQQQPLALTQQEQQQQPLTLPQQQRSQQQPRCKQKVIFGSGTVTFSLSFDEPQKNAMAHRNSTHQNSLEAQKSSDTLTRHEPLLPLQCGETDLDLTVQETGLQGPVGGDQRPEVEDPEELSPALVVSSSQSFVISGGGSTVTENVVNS
Type: cell-based
Excerpt: The assay investigates a compound's functional ability to act as a biological positive modulator on the human CaSR. Activation of the receptor expressed on CHO-K1 cells is detected through the G alpha q pathway, the activation of phospholipase C and the accumulation of intracellular inositol phosphate (IP) as described earlier [Sandrine Ferry, Bruno Chatel, Robert H. Dodd, Christine Lair, Danielle Gully, Jean-Pierre Maffrand, and Martial Ruat. Effects of Divalent Cations and of a Calcimimetic on Adrenocorticotropic Hormone Release in Pituitary Tumor Cells. Biochemical and biophysical research Communications 238, 866-873 (1997)]. The human CaSR is stably expressed on a CHO-K1 cell clone, stimulated with a basal level of calcium and challenged with the tested compound. The level of IP1 is determined using the IP-One Terbium htrf kit (Cisbio, France). CHO-K1 cells not transfected with the CaSR fail to elicit an IP1 response upon calcium and/or compound stimulation.
The ORF coding for the human CaSR (genebank: NM_000388) was acquired from Invitrogen Corp, USA and subsequently cloned into the mammalian expression vector pCDA3.1.
CHO-K1 cells were transfected using Lipofectamine according to manufacturer's protocol (400.000 cells/well were seeded in a 6-well plate and transfected after 24 hours using 2 μg DNA and 5 μl lipofectamine). After another 24 hours the cells were detached, seeded and subjected to 1 mg/ml of G-418. Following 7 days growth single clones were picked, the CaSR expression evaluated using the 5C10 antibody against CaSR, the clones with the highest expression were selected and tested for functional response. The preferred clone was cultured according to standard procedures described in ATCC (American Type Culture Collection) protocols for CHO-K1 with the addition of 500 μg/ml G-418.
On the assay day, cells were thawed, harvested and resuspended to 4*10^6 cells/ml in stimulation buffer (containing: Hepes 10 mM, MgCl2 0.5 mM, KCl 4.2 mM, NaCl 146 mM, glucose 5.5 mM, LiCl 50 mM, BSA 0.5% at pH 7.4). Ten μl cell solution was pipetted into wells of a white 384-well plate (Perkin Elmer Optiplate) containing 2 μl compound diluted in assay buffer (containing: Hepes 10 mM, MgCl2 0.5 mM, KCl 4.2 mM, NaCl 146 mM, glucose 5.5 mM, LiCl 50 mM, CaCl2 11.4 mM at pH 7.4), resulting in a final Ca^2+ concentration of 1.9 mM. After compound stimulation for 1 hour at 37° C. and 15 min at room temperature, 10 ul of IP-One assay detection reagent (prepared as described by the IP-One assay kit manufacturer) was added and the plate was incubated for another 1 hour at room temperature. Finally the plate was read using a Perkin Elmer EnVision, according to the protocol supplied by the IP-One assay kit manufacturer. The FRET ratio was calculated by dividing the 665 nm emission signal with that of the 615 nm.
The molar concentration of a compound that produces 50% of the maximum agonistic response (the […] value) is calculated according to the equation “General sigmoidal curve with Hill slope, a to d” (Equation 1). This model describes a sigmoidal curve with an adjustable baseline. The equation can be used to fit curves where response is either increasing or decreasing with respect to the independent variable, X.
y=(a−d)/(1+(x/c)̂b)+d Equation 1.

`COc1cc([C@@H](C)N[C@H]2CC[C@@H](c3ccc(C(=O)NCCNC(=O)c4nc[nH]n4)cc3)C2)ccc1F` [Compound 101, N-[2-[[4-[(1R,3S)-3-[[(1R)-1-(4-Fluoro-3-methoxy-phenyl)ethyl]-amino]cyclopentyl]benzoyl]amino]ethyl]-1H-1,2,4-triazole-3-carboxamide] and `COc1cc([C@@H](C)N[C@H]2CC[C@@H](c3ccc(C(=O)NCCNC(=O)CO)cc3)C2)ccc1F` [Compound 103, 4-[(1R,3S)-3-[[(1R)-1-(4-Fluoro-3-methoxy-phenyl)ethyl]amino]cyclopentyl]-N-[2-[(2-hydroxyacetyl)amino]ethyl]benzamide] cannot be ordered by EC50: < 200 nM for the first, < 200 nM for the second.

First: COc1cc([C@@H](C)N[C@H]2CC[C@@H](c3ccc(C(=O)NCCNC(=O)C(O)CO)cc3)C2)ccc1F (stereo partly drawn) [Compound 102, N-[2-(2,3-Dihydroxypropanoylamino)ethyl]-4-[(1R,3S)-3-[[(1R)-1-(4-fluoro-3-methoxy-phenyl)ethyl]amino]cyclopentyl]benzamide]
Second: COc1cc([C@@H](C)N[C@H]2CC[C@@H](c3ccc(C(=O)NCCNC(=O)C(N)=O)cc3)C2)ccc1F [Compound 104, N-[2-[[4-[(1R,3S)-3-[[(1R)-1-(4-Fluoro-3-methoxy-phenyl)ethyl]amino]cyclopentyl]benzoyl]amino]ethyl]oxamide]
The EC50 of the first is higher: 200 to 1000 nM for the first, < 200 nM for the second. The second is the more potent here.

In the case of `COc1cc([C@@H](C)N[C@H]2CC[C@@H](c3ccc(C(=O)NCCNC(=O)CS(C)(=O)=O)cc3)C2)ccc1F` [Compound 105, 4-[(1R,3S)-3-[[(1R)-1-(4-Fluoro-3-methoxy-phenyl)ethyl]amino]-cyclopentyl]-N-[2-[(2-methylsulfonylacetyl)amino]ethyl]benzamide], the EC50 is reported as < 200 nM.
